“Also recorded” adds a separate entry of the source. Structures can show the parent of a compound that is named as a salt.
Experiments:
[1] = test system: delta-E Torsin1a localization; assay: Delta-E Torsin1a mislocalization assay (% cells with EGFP puncta, high-content imaging); type: cell-based, human; conditions: for effect on delta-E Torsin1a localization (cells with puncta), in words: dose response; for % pathology CC-v2 (dose response Curve Class): curve class per Inglese et al. 2006
Description: To limit variation in expression levels associated with random integration or transient expression, single copies of either WT or delta-E human TOR1A cDNAs with N-terminal EGFP fusions were inserted at the FRT site in Flp-In™ T-Rex™ 293 cells (Thermo Fisher Scientific #R780-07) via flippase recombinase-mediated cassette exchange according to the manufacturer's recommended protocols.
The cells were maintained at 37° C./5% CO2. All experiments were performed on cells with fewer than 5 passages.
Torsin1a expression was also controlled by tetracycline induction to avoid selective pressure modifying the cellular phenotypes. […] The mutant phenotype was measured as the percentage of cells with one or more EGFP puncta using automated high-content imaging analysis (see infra).
The image analysis algorithm was developed using the Cellomics ArrayScan V CompartmentAnalysisV2 protocol. Hoechst's nuclear staining (Ch1: excitation 350 nm; emission 461 nm) was used for focusing and for cell identification by nuclear size, shape, and intensity. […] Detected cells were gated according to nuclear area, length-to-width ratio, and perimeter-to-area ratio. For the purpose of analysis, cell bodies were defined by a radius of 10 μm from the outer edge of the defined nucleus. Overlapping cells were automatically segmented according to the Cellomics ArrayScanV CompartmentAnalysisV2 object segmentation feature. EGFP fluorescence (Ch2: excitation 488 nm; emission 509 nm) was used for puncta detection. […] Torsin a puncta were identified using the spot detection feature of the Compartmental AnalysisV2 protocol. The percentage of cells containing one or more puncta was used as the primary metric in this assay.
(§1) In order to test this model directly, the delta-E Torsin1a cell line was treated with compounds targeting the eIF2-alpha signaling pathway (FIG. 2). […] The following day, serial drug dilutions were prepared at 2× final concentration in assay media containing 10 μg/mL tetracycline and 30 μL of the drug/tetracycline mixture was added to the appropriate wells, while control wells received 30 μL of assay media alone or assay media+10 μg/mL tetracycline (final tetracycline concentration for all wells except negative controls: 5 μg/mL). Cells were then incubated at 37° C./5% CO^2 for 48 hours and fixed, permeabilized, Hoechst stained, and imaged as described above. The range of the Torsin1a localization effect was normalized to the percentage of cells with puncta in vehicle-treated delta-E cell line as the maximum and that in WT cell line as the minimum (FIG. 2, panels c-h). Cell count and EGFP-Torsin1a expression were normalized to their respective values in the vehicle-treated delta-E cell line as the maximum. All dose response data are the average of 4 independent experiments per dose. Untreated control data used for normalization are the average of 24 independent experiments.

[2] = test system: homozygous DYT1 knock-in mice; assay: Perinatal survival of DYT1 knock-in mice after in utero exposure; type: in vivo
Text: Pairs of heterozygous delta-E Torsin1a knock-in breeders (courtesy of Dr. W. Dauer, University of Michigan) were randomly assigned to vehicle or salubrinal treatment groups. Starting 10 days after breeding cages were established, each female mouse was given a daily subcutaneous injection of vehicle or salubrinal at approximately 6 p.m. Cages were checked for new pups three times per day: morning (˜8 a.m.), early afternoon (˜2 p.m.), and during injections (˜6 p.m.). In order to minimize stress and the possibility of litter abandonment, mice with newborn pups were not given injections. Newborn pups were identified by marking limbs with a permanent laboratory marker, and tail samples were taken for genotyping at P0. At approximately P0.5, cages were checked again, and the status of each pup was recorded. If pups were first observed at the 8 am check, the 2 pm check was considered P0.5. If pups were first observed at the 2 pm or 6 pm checks, an additional check was performed at approximately midnight, and considered P0.5. Mortality was also tracked the following day, after which time identifying marks were predominately washed off or obscured by fur. Approximately 8 days after birth all remaining pups were sacrificed, and 10 days after birth daily injections resumed for the subsequent litter. All genotyping and, whenever possible, all pup identification and mortality checks were performed blinded to treatment group.
Salubrinal (R&D Systems #2347) stocks were prepared at 26 mM (10× final concentration) in DMSO and stored in single-use aliquots at −80° C. Each day immediately before injections, a single salubrinal aliquot was thawed to room temperature and diluted 1:10 in injection vehicle (final vehicle composition: 1×PBS/10% DMSO/0.1% BSA). Empty injection vehicle was stored at room temperature in single-use aliquots. Mice were given a single subcutaneous injection of 3.3 mg/kg salubrinal (approximately 80 μL for a 30 g mouse) or an equivalent volume of empty injection vehicle. […]

[3] = test system: Flp-In T-REx 293 cells inducibly expressing delta-E Torsin1a; assay: Cytotoxicity (cell count, cellular morphology) in the Torsin1a assay cell line; type: cell-based, human; conditions: for Cytotox CC-v2 (dose response Curve Class): curve class per Inglese et al. 2006
Description: as §1
Efficacy is calculated as the magnitude of the pathology correction relative to the mutant Torsin1a pathology. For example an efficacy=−100% would be equivalent to the WT TorsinA phenotype, and 0% would be equivalent to the Mutant TorsinA phenotype. CCv2 refers to the dose response Curve Class annotation, and AC refers to Active Concentration.

[4] = test system: luciferase secretion; assay: C.Luc. Secretion Assay; type: cell-based; conditions: for effect on secretory deficits, in words: orthogonal assays
Description: We tested each shRNA for its ability to rescue a previously described defect in luciferase secretion. Chen, P. et al. (2010) Hum. Mol. Genet. 19, 3502-15; Cao, S. et al. (2010) Dis. Model Mech. 3, 386-96; Barrows, N. J., et al., (2010) J. Biomol. Screen. 15, 735-47.) DYT1 patient data were obtained from 4 independent patient-derived lines and WT data (black bar) from 3 normal healthy control lines. Each line was tested in 5 independent experiments that included 4 technical replicates each (with the exception of SCD data from 3 independent experiments).
(Cao, S. et al. (2010) Dis. Model. Mech. 3, 386-96.) Subsequent testing of additional HIV protease inhibitors supported the activity of this class of compounds and generated favorable structure-activity relationship (SAR) data from which to design improved compounds (Tables 5 and 6). The results with a subset of compounds were also observed in a Luciferase secretion assay (Tables 5 and 6).

[5] = delta-E Torsin1a assay cell line

Compound: Cc1c(O)cccc1C(=O)N[C@@H](CSc1ccccc1)[C@H](O)CN1C[C@H]2CCCC[C@H]2C[C@H]1C(=O)NC(C)(C)C [Nelfinavir]
- Emax ([1]; Homo sapiens, delta-E Torsin1a assay cell line, read-out: ΔE TorsinA Mislocalization Assay Localization Max Efficacy): 80%
- effect on delta-E Torsin1a localization (cells with puncta), in words ([1]; delta-E cell line): corrected TorsinA localization in a dose-dependent fashion

Compound: O=C(/C=C/c1ccccc1)NC(NC(=S)Nc1cccc2cccnc12)C(Cl)(Cl)Cl (stereo not shown) [Salubrinal]
- steady-state EGFP-Torsin1a levels, in words ([1]; delta-E cell line): without modifying steady-state EGFP-Torsin1a levels
- effect on delta-E Torsin1a localization (cells with puncta), in words ([1]; delta-E cell line): robust dose-dependent normalization
- perinatal survival / mortality of delta-E/delta-E pups ([2]; 3.3 mg/kg subcutaneous daily to pregnant dams, about embryonic day 10 through delivery, versus vehicle): dramatically reduced the mortality; also recorded: improves perinatal survival
- mortality of wild-type and heterozygous pups ([2]; 3.3 mg/kg subcutaneous daily to pregnant dams, versus vehicle): no mortality differences
- homozygous delta-E Torsin1a pups surviving through the second postnatal day ([2]; no postnatal treatment, no vehicle-treated homozygous pup survived the first postnatal day): two

Compound: CCCC(CCC)C(=O)O [valproic acid]
- effect on delta-E Torsin1a localization (cells with puncta), in words ([1]; delta-E cell line): no effect

Compound: CC(C)CN(C[C@@H](O)[C@H](Cc1ccccc1)NC(=O)O[C@H]1CCOC1)S(=O)(=O)c1ccc(N)cc1 [Amprenavir]
- ΔE TorsinA Mislocalization Assay Localization EC50 [1, 5]: No Activity
- Cytotox CC-v2 (dose response Curve Class) [3]: 4

Compound: CC(C)(C)NC(=O)[C@@H]1CN(Cc2cccnc2)CCN1C[C@@H](O)C[C@@H](Cc1ccccc1)C(=O)N[C@H]1c2ccccc2C[C@H]1O [Indinavir sulfate]
- Cytotox Efficacy [3]: −80.64%
- Cytotox Max Resp [3]: −67.80%
- Cytotox CC-v2 (dose response Curve Class) [3]: −3

Compound: Cc1c(O)cccc1C(=O)N[C@@H](CSc1ccccc1)[C@H](O)CN1C[C@H]2CCCC[C@H]2C[C@H]1C(=O)NC(C)(C)C [Viracept]
- Cytotox Efficacy [3]: −106.32%
- Cytotox Max Resp [3]: −97.72%
- Cytotox CC-v2 (dose response Curve Class) [3]: −1.1

Compound: CC(C)c1nc(CN(C)C(=O)N[C@H](C(=O)N[C@@H](Cc2ccccc2)C[C@H](O)[C@H](Cc2ccccc2)NC(=O)OCc2cncs2)C(C)C)cs1 [Ritonavir]
- effect on delta-E Torsin1a localization (cells with puncta), in words ([1]; delta-E cell line): corrected TorsinA localization in a dose-dependent fashion; also recorded: restored
- Cytotox CC-v2 (dose response Curve Class) [3]: 4
- effect on secretory deficits, in words [4]: corrected secretory deficits

Compound: N=C(N)N/N=C/c1c(Cl)cccc1Cl [guanabenz]
- effect on delta-E Torsin1a localization (cells with puncta), in words ([1]; delta-E cell line): no effect

Compound: C[C@H](NC(=O)Cc1cc(F)cc(F)c1)C(=O)N[C@H](C(=O)OC(C)(C)C)c1ccccc1 [DAPT]
- effect on delta-E Torsin1a localization (cells with puncta), in words ([1]; delta-E cell line): no effect

Compound: Cc1cccc(C)c1OCC(=O)NC(CCC(Cc1ccccc1)NC(=O)C(C(C)C)N1CCCNC1=O)Cc1ccccc1 (stereo not shown) [Des-hydroxy Lopinavir]
- % pathology CC-v2 (dose response Curve Class) [1]: −3
- Cytotox Efficacy [3]: −77.66%
- Cytotox Max Resp [3]: −66.67%
- Cytotox CC-v2 (dose response Curve Class) [3]: −2.2

Compound: CS(=O)(=O)O.Cc1c(O)cccc1C(=O)N[C@@H](CSc1ccccc1)[C@H](O)CN1C[C@H]2CCCC[C@H]2C[C@H]1C(=O)NC(C)(C)C.O [Nelfinavir mesylae hydrate]
- % pathology CC-v2 (dose response Curve Class) [1]: −1.1
- Cytotox Efficacy [3]: −98.05%
- Cytotox Max Resp [3]: −95.64%
- Cytotox CC-v2 (dose response Curve Class) [3]: −1.1

Compound: CCN(CC)CCC(=O)N1N=C(c2c(-c3ccccc3)c3cc(Br)ccc3[nH]c2=O)CC1c1ccc(Br)cc1 (stereo not shown) [CCT020312]
- effect on delta-E Torsin1a localization (cells with puncta), in words ([1]; delta-E cell line): dose-dependent reduction in the number of cells with Torsin1a inclusions

Compound: CC(C)CN(C[C@@H](O)[C@H](Cc1ccccc1)NC(=O)O[C@H]1CO[C@H]2OCC[C@H]21)S(=O)(=O)c1ccc(N)cc1 [Darunavir]
- ΔE TorsinA Mislocalization Assay Localization EC50 [1, 5]: No Activity
- C.Luc. Secretion Assay Secretion EC50 [4]: No Activity

Compound: CC(C)(C)NC(=O)[C@@H]1CN(Cc2cccnc2)CCN1C[C@@H](O)C[C@@H](Cc1ccccc1)C(=O)N[C@H]1c2ccccc2C[C@H]1O [Indinavir]
- effect on delta-E Torsin1a localization (cells with puncta), in words ([1]; delta-E cell line): corrected TorsinA localization in a dose-dependent fashion

Compound: COC(=O)N[C@H](C(=O)N[C@@H](Cc1ccccc1)[C@@H](O)CN(Cc1ccc(-c2ccccn2)cc1)NC(=O)[C@@H](NC(=O)OC)C(C)(C)C)C(C)(C)C [Atazanavir]
- ΔE TorsinA Mislocalization Assay Localization EC50 [1, 5]: No Activity
- Cytotox CC-v2 (dose response Curve Class) [3]: 4

Compound: CC(C)(C)NC(=O)[C@@H]1C[C@@H]2CCCC[C@@H]2CN1C[C@@H](O)[C@H](Cc1ccccc1)NC(=O)[C@H](CC(N)=O)NC(=O)c1ccc2ccccc2n1 [Saquinavir]
- effect on delta-E Torsin1a localization (cells with puncta), in words ([1]; delta-E cell line): corrected TorsinA localization in a dose-dependent fashion
- effect on secretory deficits, in words [4]: corrected secretory deficits

— US11529343B2, “Compositions and methods for identifying and treating dystonia disorders” (DUKE UNIVERSITY, priority 2015, dated 2022)
